Source: patent US11304956B2, “Use of 7-bromo-5-(O-chlorophenyl)-3-propoxy-1,2-dihydro-3H-1,4-benzodiazepin-2-one for inhibition of neuropathic pain and seizures of different etiology” (priority 2016, dated 2022)

Tested on: carrageenan rat paw edema
Assay: Carrageenan rat paw edema
Assay type: in vivo, male white rats
Text: Given the fact that Compound 1 affects not only the painful, but also the inflammatory phase, we undertook an in-depth study of its anti-inflammatory effect. The most common screening method of anti-inflammatory activity is the model of inflammatory edema of the rat hind paw, induced by the subplantar administration of various phlogogenic agents. Under the conditions of carrageenan administration, a sufficiently pronounced edema reaction is observed, which slowly develops and persists for a long time. The maximum size of edema is observed in 2-4 hours.
The anti-inflammatory properties of the test compounds were studied in the model of carrageenan rat paw edema. Male white rats weighing 150-180 g were used in the experiments. Before the administration of the experimental substances, the volumes of the rats' paws subsequently injected by phlogogen were measured. The test compounds and the reference drug—diclofenac-sodium, were administered intraperitoneally 40 minutes prior the inflammation induction. The control group of the rats received an equivalent amount of physiological solution in the emulsion with Tween-80. Acute aseptic inflammation was induced by a 1% aqueous solution of 0.1 ml)—carrageenan injection under plantar aponeurosis of the hind paw of animals of the experimental and control groups (see Trinus F. P. Nonsteroidal anti-inflammatory drugs/F. P. Trinus, N. A. Mohort, B. M. Klebanov//K., 1975, pp. 204-231., Winter C. A. Carrageenin—induced edema in hind paw of the rat as an assay for antiinflammatory drugs/C. A. Winter, E. A. Risley, G. V. Nuss//Proc. Soc. Exp. Biol. Med.—1962.—Vol. 111.—P. 544-547). The inflammatory reaction significance was evaluated after two and four hours after the phlogogen injection. Registration of edema size was carried out by mechanical measurement of foot volume in dynamics according to Zakharevsky A. S. (see Zaharevskiy A. S. The influence of some indole derivatives on the nervous system. Diss. cand. med. science/Zaharevskiy Aleksandr Stepanovich-Minsk.—1969.—78-80 p.). The edema extent was estimated according to the difference in volume between the swollen paw and the paw before inflammation induction. The anti-inflammatory efficacy of the test compounds was determined as the ability of the test compounds to suppress the inflammatory response in the experimental animals compared to the control animals and expressed as a percentage. The calculation was carried out according to the following formula:
The percentage of inflammation suppression=(ΔVκ−ΔV ? /ΔVκ)·100%,
where: ΔVκ—the average increase in the volume of the swollen paw in the control;
ΔV ? —the average increase in the volume of the swollen paw in animals injected by experimental substances.

[1] = 3.0 mg/kg intraperitoneally 40 min before carrageenan
[2] = 10.0 mg/kg intraperitoneally 40 min before carrageenan

CCCOC1N=C(c2ccccc2Cl)c2cc(Br)ccc2NC1=O (stereo not shown) [Compound 1, 7-bromo-5-(o-chlorophenyl)-3-propoxy-1,2-dihydro-3H-1,4-benzodiazepin-2-one]
Inhibition of edema in 2 hours (%) [1]: 36.7 ± 4.1 %
Inhibition of edema in 4 hours (%) [1]: 25.00 ± 2.7 %
Inhibition of edema in 2 hours (%) [2]: 47.0 ± 4.1 %
Inhibition of edema in 4 hours (%) [2]: 26.70 ± 5.4 %
